What was measured:
Experiment in all cases: combination Emax (second highest fraction inhibited in the dose matrix, 72 h); higher = more inhibition; extreme values may be limits of the assay
[1] = test system: GDM-1 (Acute Myeloid Leukemia)
Outline: (§1)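 Cell lines in DMEM/F12 or RPMI with 10% FBS were plated in 1536-well plates, held 24 hours at 37°C, 5% CO2, then given two-drug dose matrices for 72 hours (DMSO typically 0.2%). Viability was read by CellTiter-Glo 2.0 luminescence and scaled as inhibition from 0 (vehicle wells) to 1 (blank wells). Combination Emax is the second-highest inhibition in the matrix; Bliss excess is observed combination effect minus expected EA + EB − EA·EB, EA and EB being single-agent effects.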

[2] = test system: ETK-1 (Biliary Tract Carcinoma)
Outline: as §1

[3] = test system: MSTO-211H (Mesothelioma)
Outline: as §1

[4] = test system: TYK-nu (Ovarian Carcinoma)
Outline: as §1

[5] = test system: NCI-H1688 (Small Cell Lung Carcinoma)
Outline: as §1

[6] = test system: H4 (Low Grade Glioma)
Outline: as §1

[7] = test system: A172 (Glioblastoma)
Outline: as §1

[8] = test system: HLE (Hepatocellular Carcinoma)
Outline: as §1

[9] = test system: YT (Other Blood Carcinomas)
Outline: as §1

[10] = test system: BICR78 (Oral Cavity Carcinoma)
Outline: as §1

[11] = test system: SK-MEL-1 (Melanoma)
Outline: as §1

[12] = test system: KG-1 (Acute Myeloid Leukemia)
Outline: as §1

[13] = test system: U-118-MG (Low Grade Glioma)
Outline: as §1

[14] = test system: HuO9 (Osteosarcoma)
Outline: as §1

[15] = test system: MCF7 (Breast Carcinoma)
Outline: as §1

[16] = test system: D-283MED (Other Solid Carcinomas)
Outline: as §1

[17] = test system: EKVX (Non-Small Cell Lung Carcinoma)
Outline: as §1

[18] = test system: SNU-61 (Colorectal Carcinoma)
Outline: as §1

[19] = test system: CAL-39 (Other Solid Carcinomas)
Outline: as §1

[20] = test system: SLVL (B-Cell Non-Hodgkin's Lymphoma)
Outline: as §1

SMILES | combination Emax [1] | combination Emax [2] | combination Emax [3] | combination Emax [4] | combination Emax [5] | combination Emax [6] | combination Emax [7] | combination Emax [8] | combination Emax [9] | combination Emax [10] | combination Emax [11] | combination Emax [12] | combination Emax [13] | combination Emax [14] | combination Emax [15] | combination Emax [16] | combination Emax [17] | combination Emax [18] | combination Emax [19] | combination Emax [20]
CN(CCO)CC[C@H](CSc1ccccc1)Nc1ccc(S(=O)(=O)NC(=O)c2ccc(N3CCC([C@@H](O)c4ccccc4-c4ccc(Cl)cc4)CC3)cc2)cc1S(=O)(=O)C(F)(F)F [AZD4320] + CCN(CCO)CCCOc1ccc2c(Nc3cc(CC(=O)Nc4cccc(F)c4)[nH]n3)ncnc2c1 [AZD2811] (first compound max 1 µM, 7x7, partner max 1 µM) | 1 | 0.26 | 0.837 | 0.27 | 0.723 | 0.543 | 0.457 | 0.721 | 0.196 | 0.313 | 0.453 | 0.966 | 0.487 | 0.728 | 0.248 | 0.973 | 0.155 | 0.126 | 0.397 | 0.94
Cc1c2c(nn1C)CSCc1cc(n(C)n1)CSc1cc(c3ccccc3c1)OCCCc1c(C(=O)O)n(C)c3c-2c(Cl)ccc13 [AZD5991] + CCN(CCO)CCCOc1ccc2c(Nc3cc(CC(=O)Nc4cccc(F)c4)[nH]n3)ncnc2c1 [AZD2811] (first compound max 1 µM, 7x7, partner max 1 µM) | 0.949 | 0.294 | 0.443 | 0.534 | 0.314 | 0.586 | 0.474 | 0.579 | 1 | 0.304 | 0.312 | 1 | 0.342 | 0.991 | 0.692 | 0.639 | 0.226 | 0.254 | 0.815 | 0.768
CN(CCO)CC[C@H](CSc1ccccc1)Nc1ccc(S(=O)(=O)NC(=O)c2ccc(N3CCC([C@@H](O)c4ccccc4-c4ccc(Cl)cc4)CC3)cc2)cc1S(=O)(=O)C(F)(F)F [AZD4320] + C[C@@H]1COCCN1C2=NC(=NC(=C2)C3(CC3)[S@](=N)(=O)C)C4=C5C=CNC5=NC=C4 [AZD6738] (first compound max 1 µM, 7x7, partner max 10 µM) | 1 | 0.675 | 0.959 | 0.803 | 0.728 | 0.9 | 0.731 | 0.871 | 0.811 | 0.774 | 0.597 | 1 | 0.878 | 0.956 | 0.656 | 0.992 | 0.252 | 0.365 | 0.619 | 0.94
Cc1cc2ncnn2cc1Nc1ncc2c(n1)n(C1CCOCC1)c(=O)n2C [AZD7648] + C=CCn1c(=O)c2cnc(Nc3ccc(N4CCN(C)CC4)cc3)nc2n1-c1cccc(C(C)(C)O)n1 [AZD1775] (first compound max 10 µM, partner max 1 µM) | 0.894 | 0.452 | 0.612 | 0.695 | 0.586 | 0.796 | 0.617 | 0.66 | 0.89 | 0.375 | 0.399 | 0.452 | 0.435 | 0.724 | 0.552 | 0.957 | 0.306 | 0.401 | 0.462 | 0.916
CC1(C)CCC(CN2CCN(c3ccc(C(=O)NS(=O)(=O)c4ccc(NCC5CCOCC5)c([N+](=O)[O-])c4)c(Oc4cnc5[nH]ccc5c4)c3)CC2)=C(c2ccc(Cl)cc2)C1 [Venetoclax] + C[C@@H]1COCCN1C2=NC(=NC(=C2)C3(CC3)[S@](=N)(=O)C)C4=C5C=CNC5=NC=C4 [AZD6738] (first compound max 1 µM, 7x7, partner max 10 µM) | 0.946 | 0.723 | 0.596 | 0.722 | 0.451 | 0.768 | 0.595 | 0.642 | 0.852 | 0.603 | 0.391 | 0.917 | 0.648 | 0.814 | 0.705 | 0.954 | 0.214 | 0.43 | 0.397 | 0.939
CC1(C)CCC(CN2CCN(c3ccc(C(=O)NS(=O)(=O)c4ccc(NCC5CCOCC5)c([N+](=O)[O-])c4)c(Oc4cnc5[nH]ccc5c4)c3)CC2)=C(c2ccc(Cl)cc2)C1 [Venetoclax] + CN(C)CCCOc1ccc(-c2ccc3ncc4c(c3c2)n(C2CCOCC2)c(=O)n4C)cn1 [AZD0156] (first compound max 1 µM, 7x7, partner max 1 µM) | 0.679 | 0.202 | 0.123 | 0.174 | 0.195 | 0.232 | 0.238 | 0.171 | 0.475 | 0.297 | 0.231 | 0.595 | 0.217 | 0.343 | 0.242 | 0.706 | 0.22 | 0.182 | 0.21 | 0.848

From the supplement of paper PMC11061612
